Results reported in US11390603B2, “Crystalline forms of a biphenyl compound” (THERAVANCE BIOPHARMA R&D IP, LLC, priority 2005, dated 2022).

Key:
[1] = pH 5
Experimental: A solution was prepared with 0.5 mg/mL freebase equivalents (using a crystalline diphosphate salt prepared as described in Example 3) in 10 mM citrate buffered normal saline, pH 5. […] Less than 0.5% degradation was observed after storage for one month at 40° C./75% RH.

[2] = DMS trace
Experimental: A dynamic moisture sorption (DMS) assessment (also known as a moisture sorption-desorption profile) was performed using a VTI atmospheric microbalance, SGA-100 system (VTI Corp., Hialeah, Fla. 33016). A sample size of approximately 10 mg was used and the humidity was set at the ambient value at the start of the analysis. A typical DMS analysis consisted of three scans: ambient to 2% relative humidity (RH), 2% RH to 90% RH, 90% RH to 5% RH at a scan rate of 5% RH/step. The mass was measured every two minutes and the RH was changed to the next value (+/−5% RH) when the mass of the sample was stable to within 0.01% for 5 consecutive points.

[3] = DSC trace, 10° C./min
Experimental: Differential scanning calorimetry (DSC) was performed using a TA Instruments Model Q-10 module with a Thermal Analyst controller. Data were collected and analyzed using TA Instruments Thermal Solutions software. A sample of about 1-4 mg was accurately weighed into an aluminum pan with lid. The sample was evaluated using a linear heating ramp of 10° C./min from ambient temperature to approximately 300° C. The DSC cell was purged with dry nitrogen during use.

[4] = six weeks at −20° C. (closed) and 40° C./75% RH (open and closed)
Experimental: At specific intervals, the entire contents of a representative vial was analyzed by the following HPLC method: […]

Structure (SMILES) | degradation of solution after storage ([1]; 0.5 mg/mL freebase equivalents in 10 mM citrate buffered normal saline, one month at 40° C./75% RH) | solubility of the crystalline salt ([1]; 10 mM citrate buffered normal saline) | sorption/desorption profile and hygroscopicity [2] | weight gain when exposed to 2-90% RH [2] | weight gain in the humidity range of 40-75% RH [2] | temperature below which no thermal decomposition occurs [3] | solid state stability: change in chemical purity [4]
CN(CCN1CCC(OC(=O)Nc2ccccc2-c2ccccc2)CC1)C(=O)c1ccc(CN2CCC(C(N)=O)CC2)cc1.O=P(O)(O)O.O=P(O)(O)O [Example 3, Crystalline Diphosphate Salt of Biphenyl-2-ylcarbamic Acid 1-(2-{[4-(4-Carbamoylpiperidin-1-ylmethyl)benzoyl]methylamino}ethyl)piperidin-4-yl Ester] | Less than 0.5% | greater than 40 mg/mL of freebase equivalent | reversible sorption/desorption profile with low hygroscopicity | 3.3% | 0.6% | ≥ 150 °C | no detectable change in chemical purity
CN(CCN1CCC(OC(=O)Nc2ccccc2-c2ccccc2)CC1)C(=O)c1ccc(CN2CCC(C(N)=O)CC2)cc1.O=S(=O)(O)O [Example 5, Crystalline Monosulfate Salt of Biphenyl-2-ylcarbamic Acid 1-(2-{[4-(4-Carbamoylpiperidin-1-ylmethyl)benzoyl]methylamino}ethyl)piperidin-4-yl Ester] | – | – | reversible sorption/desorption profile with low hygroscopicity | 10% | 1.8% | – | –
CN(CCN1CCC(OC(=O)Nc2ccccc2-c2ccccc2)CC1)C(=O)c1ccc(CN2CCC(C(N)=O)CC2)cc1.O=C(O)C(=O)O.O=C(O)C(=O)O [Example 7, Crystalline Dioxalate Salt of Biphenyl-2-ylcarbamic Acid 1-(2-{[4-(4-Carbamoylpiperidin-1-ylmethyl)benzoyl]methylamino}ethyl)piperidin-4-yl Ester] | – | – | reversible sorption/desorption profile with low hygroscopicity | 5.3% | 1.1% | – | –
CN(CCN1CCC(OC(=O)Nc2ccccc2-c2ccccc2)CC1)C(=O)c1ccc(CN2CCC(C(N)=O)CC2)cc1 [Example 10, Crystalline Freebase Biphenyl-2-ylcarbamic Acid 1-(2-{[4-(4-Carbamoylpiperidin-1-ylmethyl)benzoyl]methylamino}ethyl)piperidin-4-yl Ester (Form I)] | – | – | reversible sorption/desorption profile with low hygroscopicity | 10% | 1.2% | ≥ 80 °C | –
CN(CCN1CCC(OC(=O)Nc2ccccc2-c2ccccc2)CC1)C(=O)c1ccc(CN2CCC(C(N)=O)CC2)cc1 [Example 11, Crystalline Freebase Biphenyl-2-ylcarbamic Acid 1-(2-{[4-(4-Carbamoylpiperidin-1-ylmethyl)benzoyl]methylamino}ethyl)piperidin-4-yl Ester (Form II)] | – | – | reversible sorption/desorption profile with low hygroscopicity | 9% | 1.3% | ≥ 75 °C | –
